Results from ChEMBL document CHEMBL1201861, “Genomics of Drug Sensitity in Cancer screening data, Wellcome Trust Sanger Institute”.

Key:
Test in all cases: cells
COLO-741 = assay type: functional, cell-based; details: Homo sapiens
Description: SANGER: Inhibition of human COLO-741 cell growth in a cell viability assay.

CP66-MEL = assay type: functional, cell-based; details: Homo sapiens;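 further: growth inhibition of CP66-MEL cells determined in a cell viability assay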
Description: SANGER: Inhibition of human CP66-MEL cell growth in a cell viability assay.

D-336MG = assay type: functional, cell-based, Homo sapiens; details: Homo sapiens, D-336MG
Description: SANGER: Inhibition of human D-336MG cell growth in a cell viability assay.

D-542MG = assay type: functional, cell-based; details: Homo sapiens
Description: SANGER: Inhibition of human D-542MG cell growth in a cell viability assay.

DU-145 = assay type: functional, cell-based; details: Homo sapiens
Description: SANGER: Inhibition of human DU-145 cell growth in a cell viability assay.

GMS-10 = assay type: functional, cell-based; details: Homo sapiens;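 further: growth inhibition of GMS-10 cells, read out as cell viability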
Description: SANGER: Inhibition of human GMS-10 cell growth in a cell viability assay.

GP5d = assay type: functional, cell-based; details: Homo sapiens;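 further: growth inhibition of human GP5d cells, read out with a cell viability assay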
Description: SANGER: Inhibition of human GP5d cell growth in a cell viability assay.

HCT-15 = assay type: functional, cell-based; details: Homo sapiens;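 further: cell viability readout, IC50 reflecting suppression of HCT-15 cell growth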
Description: SANGER: Inhibition of human HCT-15 cell growth in a cell viability assay.

HuO9 = assay type: functional, cell-based; details: Homo sapiens;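 further: growth inhibition of HuO9 cells, read out with a cell viability assay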
Description: SANGER: Inhibition of human HuO9 cell growth in a cell viability assay.

IGR-1 = assay type: functional, cell-based; details: Homo sapiens;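 further: growth inhibition of human IGR-1 cells, read out with a cell viability assay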
Description: SANGER: Inhibition of human IGR-1 cell growth in a cell viability assay.

KYSE-410 = assay type: functional, cell-based; details: Homo sapiens;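 further: growth inhibition of KYSE-410 cells, measured through a cell viability readout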
Description: SANGER: Inhibition of human KYSE-410 cell growth in a cell viability assay.

MDA-MB-157 = assay type: functional, cell-based; details: Homo sapiens
Description: SANGER: Inhibition of human MDA-MB-157 cell growth in a cell viability assay.

MFE-280 = assay type: functional, cell-based; details: Homo sapiens;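 further: growth inhibition of MFE-280 cells, determined with a cell viability readout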
Description: SANGER: Inhibition of human MFE-280 cell growth in a cell viability assay.

NB17 = assay type: functional, cell-based, Homo sapiens; details: Homo sapiens, NB17;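 further: growth inhibition of NB17 cells, read out with a cell viability assay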
Description: SANGER: Inhibition of human NB17 cell growth in a cell viability assay.

NCI-H2347 = assay type: functional, cell-based; details: Homo sapiens;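 further: growth inhibition of the cell line, read out with a cell viability assay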
Description: SANGER: Inhibition of human NCI-H2347 cell growth in a cell viability assay.

NCI-H441 = assay type: functional, cell-based; details: Homo sapiens;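 further: growth inhibition of NCI-H441 cells, read out with a cell viability assay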
Description: SANGER: Inhibition of human NCI-H441 cell growth in a cell viability assay.

NCI-H510A = assay type: functional, cell-based, Homo sapiens; details: Homo sapiens, NCI-H510A;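 further: growth inhibition of NCI-H510A cells, read out with a cell viability assay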
Description: SANGER: Inhibition of human NCI-H510A cell growth in a cell viability assay.

NCI-H520 = assay type: functional, cell-based; details: Homo sapiens;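 further: growth inhibition of NCI-H520 cells, measured by a cell viability assay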
Description: SANGER: Inhibition of human NCI-H520 cell growth in a cell viability assay.

NCI-H596 = assay type: functional, cell-based; details: Homo sapiens;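 further: growth inhibition of NCI-H596 cells, read out with a cell viability assay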
Description: SANGER: Inhibition of human NCI-H596 cell growth in a cell viability assay.

NCI-H630 = assay type: functional, cell-based; details: Homo sapiens;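 further: growth inhibition of NCI-H630 cells, read out with a cell viability assay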
Description: SANGER: Inhibition of human NCI-H630 cell growth in a cell viability assay.

OE19 = assay type: functional, cell-based; details: Homo sapiens;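 further: growth inhibition of OE19 cells, measured through a cell viability read-out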
Description: SANGER: Inhibition of human OE19 cell growth in a cell viability assay.

OVCAR-3 = assay type: functional, cell-based; details: Homo sapiens;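 further: growth inhibition of human OVCAR-3 cells, determined by a cell viability assay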
Description: SANGER: Inhibition of human OVCAR-3 cell growth in a cell viability assay.

PA-1 = assay type: functional, cell-based; details: Homo sapiens;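 further: IC50 for suppression of PA-1 cell proliferation, determined with a cell viability read-out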
Description: SANGER: Inhibition of human PA-1 cell growth in a cell viability assay.

PANC-03-27 = assay type: functional, cell-based; details: Homo sapiens
Description: SANGER: Inhibition of human PANC-03-27 cell growth in a cell viability assay.

RCM-1 = assay type: functional, cell-based; details: Homo sapiens;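 further: growth inhibition of the RCM-1 line, determined with a cell viability readout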
Description: SANGER: Inhibition of human RCM-1 cell growth in a cell viability assay.

RT-112 = assay type: functional, cell-based; details: Homo sapiens
Description: SANGER: Inhibition of human RT-112 cell growth in a cell viability assay.

SCC-4 = assay type: functional, cell-based; details: Homo sapiens;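 further: growth inhibition of human SCC-4 cells, read out as cell viability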
Description: SANGER: Inhibition of human SCC-4 cell growth in a cell viability assay.

SK-MES-1 = assay type: functional, cell-based; details: Homo sapiens;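 further: growth inhibition of human SK-MES-1 cells, read out with a cell viability assay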
Description: SANGER: Inhibition of human SK-MES-1 cell growth in a cell viability assay.

SK-OV-3 = assay type: functional, cell-based; details: Homo sapiens;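 further: growth inhibition of SK-OV-3 human cells, read out with a cell viability assay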
Description: SANGER: Inhibition of human SK-OV-3 cell growth in a cell viability assay.

SNU-449 = assay type: functional, cell-based; details: Homo sapiens
Description: SANGER: Inhibition of human SNU-449 cell growth in a cell viability assay.

SW1573 = assay type: functional, cell-based; details: Homo sapiens;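 further: growth inhibition of SW1573 cells, read out with a cell viability assay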
Description: SANGER: Inhibition of human SW1573 cell growth in a cell viability assay.

SW1710 = assay type: functional, cell-based; details: Homo sapiens;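 further: growth inhibition of SW1710 cells, determined with a cell viability assay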
Description: SANGER: Inhibition of human SW1710 cell growth in a cell viability assay.

A2058 = assay type: functional, cell-based; details: Homo sapiens;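 further: reduction of A2058 cell growth, read out with a viability assay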
Description: SANGER: Inhibition of human A2058 cell growth in a cell viability assay.

BEN = assay type: functional, cell-based; details: Homo sapiens;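 further: growth inhibition of the BEN cell line, read out with a cell viability assay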
Description: SANGER: Inhibition of human BEN cell growth in a cell viability assay.

BHT-101 = assay type: functional, cell-based; details: Homo sapiens
Description: SANGER: Inhibition of human BHT-101 cell growth in a cell viability assay.

C32 = assay type: functional, cell-based; details: Homo sapiens;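 further: cell viability assay, with IC50 reflecting inhibition of C32 cell growth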
Description: SANGER: Inhibition of human C32 cell growth in a cell viability assay.

CAL-39 = assay type: functional, cell-based; details: Homo sapiens;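 further: cell viability assay measuring growth inhibition of CAL-39 cells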
Description: SANGER: Inhibition of human CAL-39 cell growth in a cell viability assay.

CAL-51 = assay type: functional, cell-based; details: Homo sapiens;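 further: human CAL-51 cell line, growth inhibition read out via a cell viability assay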
Description: SANGER: Inhibition of human CAL-51 cell growth in a cell viability assay.

UO-31 = assay type: functional, cell-based; details: Homo sapiens;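 further: cell viability assay measuring inhibition of cell growth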
Description: SANGER: Inhibition of human U031 cell growth in a cell viability assay.

YKG-1 = assay type: functional, cell-based; details: Homo sapiens;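 further: cell growth inhibition, read out with a viability assay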
Description: SANGER: Inhibition of human YKG-1 cell growth in a cell viability assay.

CHL-1 = assay type: functional, cell-based; details: Homo sapiens;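 further: cell growth inhibition, read out with a cell viability assay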
Description: SANGER: Inhibition of human CHL-1 cell growth in a cell viability assay.

COLO-679 = assay type: functional, cell-based; details: Homo sapiens
Description: SANGER: Inhibition of human COLO-679 cell growth in a cell viability assay.

NC(=O)Nc1cc(-c2cccc(F)c2)sc1C(=O)N[C@H]1CCCNC1 [AZD-7762]
IC50 (COLO-741): > 2000 nM | IC50 (CP66-MEL): > 2000 nM | IC50 (D-336MG): 421 nM | IC50 (D-542MG): > 2000 nM | IC50 (DU-145): > 2000 nM | IC50 (GMS-10): 1350 nM | IC50 (GP5d): 412 nM | IC50 (HCT-15): > 2000 nM | IC50 (HuO9): 298 nM | IC50 (IGR-1): > 2000 nM | IC50 (KYSE-410): 1040 nM | IC50 (MDA-MB-157): 86.6 nM | IC50 (MFE-280): > 2000 nM | IC50 (NB17): 158 nM | IC50 (NCI-H2347): 1240 nM | IC50 (NCI-H441): > 2000 nM | IC50 (NCI-H510A): 246 nM | IC50 (NCI-H520): 1380 nM | IC50 (NCI-H596): > 2000 nM | IC50 (NCI-H630): 1790 nM | IC50 (OE19): > 2000 nM | IC50 (OVCAR-3): 274 nM | IC50 (PA-1): 750 nM | IC50 (PANC-03-27): 143 nM | IC50 (RCM-1): 993 nM | IC50 (RT-112): 499 nM | IC50 (SCC-4): 1020 nM | IC50 (SK-MES-1): 443 nM | IC50 (SK-OV-3): > 2000 nM | IC50 (SNU-449): > 2000 nM | IC50 (SW1573): 942 nM | IC50 (SW1710): 640 nM | IC50 (A2058): 451 nM | IC50 (BEN): > 2000 nM | IC50 (BHT-101): 1150 nM | IC50 (C32): 347 nM | IC50 (CAL-39): > 2000 nM | IC50 (CAL-51): 514 nM | IC50 (UO-31): 482 nM | IC50 (YKG-1): 1580 nM | IC50 (CHL-1): 526 nM | IC50 (COLO-679): 90.9 nM

Cc1ccc(-n2nc(C(C)(C)C)cc2NC(=O)Nc2ccc(OCCN3CCOCC3)c3ccccc23)cc1 [DORAMAPIMOD]
IC50 (COLO-741): > 10000 nM | IC50 (CP66-MEL): > 10000 nM | IC50 (D-336MG): > 10000 nM | IC50 (D-542MG): > 10000 nM | IC50 (DU-145): 3940 nM | IC50 (GMS-10): > 10000 nM | IC50 (GP5d): > 10000 nM | IC50 (HCT-15): > 10000 nM | IC50 (HuO9): > 10000 nM | IC50 (IGR-1): > 10000 nM | IC50 (KYSE-410): > 10000 nM | IC50 (MDA-MB-157): > 10000 nM | IC50 (MFE-280): > 10000 nM | IC50 (NB17): > 10000 nM | IC50 (NCI-H2347): > 10000 nM | IC50 (NCI-H441): > 10000 nM | IC50 (NCI-H520): > 10000 nM | IC50 (NCI-H596): > 10000 nM | IC50 (NCI-H630): > 10000 nM | IC50 (OE19): > 10000 nM | IC50 (OVCAR-3): > 10000 nM | IC50 (PA-1): > 10000 nM | IC50 (PANC-03-27): > 10000 nM | IC50 (RCM-1): > 10000 nM | IC50 (RT-112): > 10000 nM | IC50 (SCC-4): > 10000 nM | IC50 (SK-MES-1): > 10000 nM | IC50 (SK-OV-3): > 10000 nM | IC50 (SNU-449): > 10000 nM | IC50 (SW1573): > 10000 nM | IC50 (SW1710): > 10000 nM | IC50 (A2058): > 10000 nM | IC50 (BEN): > 10000 nM | IC50 (BHT-101): > 10000 nM | IC50 (C32): > 10000 nM | IC50 (CAL-39): > 10000 nM | IC50 (CAL-51): > 10000 nM | IC50 (UO-31): > 10000 nM | IC50 (YKG-1): > 10000 nM | IC50 (CHL-1): > 10000 nM | IC50 (COLO-679): > 10000 nM
